Results: patent US20190048365A1, “MITOCHONDRIAL MICROINJECTION OF OOCYTES” (Eastern Virginia Medical School, priority 2015, published 2019)

Legend:
[1] = system: inner mitochondrial membrane potential of human platelets; conditions: JC-1 2 μM, purified human platelets
Procedure: In FIG. 5A, platelets are stained with mitochondrial inner membrane sensitive dye JC-1(2 μM) (630× magnification). […] The red stained mitochondria reflect mitochondria with a Wm capable of supporting ATP production. […] FCCP is an uncoupler, a chemical that destroys the inner mitochondrial membrane potential Wm.

[2] = system: purified human platelets; experiment: Fluo-4 staining of purified platelets (platelet activation); type: cell-based; conditions: Fluo-4, with 2 mM calcium chloride
Text: FIGS. 6A and 6B provide further evidence of the functionality of the purified human platelets. […] Dull green fluorescence indicates functional but inactivated platelets. To activate platelets so they can begin to aggregate to initiate the blood clotting process, calcium ions should be at a significant concentration within the platelet cytoplasm.

[3] = system: isolated human platelet mitochondria; experiment: ATP levels in isolated mitochondria incubated with supplement (chemiluminescence assay); type: biochemical; conditions: 2.0 micromolar (maximum increase)
Procedure: Experiment: Aliquots of isolated human platelet mitochondria were incubated for different amounts of time in the presence of differing concentrations of L-carnitine, a compound known to stimulate the uptake and metabolism of fat molecules for use by the mitochondria to produce ATP. Along the X-axis of this graph, the numbers 1, 2, 3, and 4 refer to 0, 0.2 micromolar, 2.0 micromolar, and 20 micromolar concentrations of L-carnitine in the mitochondrial incubation buffer. The mitochondrial aliquots in hatched columns (Series 1) were incubated for 20 minutes in the presence of the L-carnitine while the mitochondrial aliquots in non-hatched columns (Series 2) were incubated for 60 minutes in the presence of L-carnitine. After these incubation times, the samples were processed to measure ATP by a very sensitive chemiluminescence assay.

Structure (SMILES): N#CC(C#N)=NNc1ccc(OC(F)(F)F)cc1 [FCCP, Carbonyl cyanide-4-(trifluoromethoxy)phenylhydrazone]
- effect on JC-1 red fluorescence (functional mitochondria) [1]: elimination of the red fluorescence

Structure (SMILES): CNc1ccc2oc(C[C@H]3O[C@@]4(CC[C@H]3C)O[C@H]([C@H](C)C(=O)c3ccc[nH]3)[C@H](C)C[C@H]4C)nc2c1C(=O)O [A23187]
- effect on Fluo-4 green fluorescence (platelet activation) [2]: much more intense green fluorescence

Structure (SMILES): C[N+](C)(C)C[C@H](O)CC(=O)[O-] [L-carnitine]
- increase in ATP levels ([3]; 20 minute incubation (Series 1)): 47%
- increase in ATP levels ([3]; 60 minute incubation (Series 2)): 80%
